ChEMBL document CHEMBL4673391, “Multiresidue Tetrapeptide Substitutions Yield a 140-fold Selective Melanocortin-3 over Melanocortin-4 Receptor Agonist” (ACS Med Chem Lett, 2021)
One block for each compound: values may come before it.

How the values were obtained:
[1] = molecular target: Melanocortin receptor 5 (Mus musculus, UniProt P41149); test: Agonist activity at mouse melanocortin receptor 5 expressed in HEK293 cells assessed as stimulation of cAMP accumulation incubated for 2 hrs by cAMP Alpha-screen assay; assay type: functional, cell-based
Melanocortin receptor 5, sequence (P41149 whole entry): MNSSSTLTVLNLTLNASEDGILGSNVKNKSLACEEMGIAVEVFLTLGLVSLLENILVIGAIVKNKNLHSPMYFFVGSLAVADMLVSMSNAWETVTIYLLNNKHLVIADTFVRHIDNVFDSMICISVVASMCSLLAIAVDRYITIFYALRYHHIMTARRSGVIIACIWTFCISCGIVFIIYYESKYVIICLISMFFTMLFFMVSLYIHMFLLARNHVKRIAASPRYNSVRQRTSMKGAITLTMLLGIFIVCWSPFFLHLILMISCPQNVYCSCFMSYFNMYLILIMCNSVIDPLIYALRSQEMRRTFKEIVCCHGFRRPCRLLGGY

[2] = species on record: Mus musculus; test: Selectivity index, ratio of Ki for mouse melanocortin receptor 4 expressed in HEK293 cells to EC50 for mouse melanocortin receptor 3 expressed in HEK293 cells assessed as stimulation of cAMP accumulation incubated for 2 hrs by cAMP Alpha-screen assay; assay type: cell-based
[3] = molecular target: Melanocortin receptor 4 (Mus musculus) (UniProt P56450); test: Agonist activity at mouse melanocortin receptor 4 expressed in HEK293 cells assessed as stimulation of cAMP accumulation at 100 uM incubated for 2 hrs by cAMP Alpha-screen assay relative to control; assay type: functional, cell-based
Melanocortin receptor 4 (Mus musculus), sequence (P56450 whole entry): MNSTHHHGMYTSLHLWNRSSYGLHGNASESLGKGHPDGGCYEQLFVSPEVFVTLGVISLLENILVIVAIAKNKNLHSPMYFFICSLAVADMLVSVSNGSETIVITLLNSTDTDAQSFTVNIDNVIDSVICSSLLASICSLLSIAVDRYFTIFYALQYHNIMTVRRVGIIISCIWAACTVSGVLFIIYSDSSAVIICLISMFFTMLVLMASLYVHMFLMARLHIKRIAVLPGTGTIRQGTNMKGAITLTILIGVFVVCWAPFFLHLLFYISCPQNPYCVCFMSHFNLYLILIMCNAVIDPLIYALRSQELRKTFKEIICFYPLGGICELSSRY

[4] = molecular target: Melanocyte-stimulating hormone receptor (Mus musculus, UniProt Q01727); test: Agonist activity at mouse melanocortin receptor 1 expressed in HEK293 cells assessed as stimulation of cAMP accumulation incubated for 2 hrs by cAMP Alpha-screen assay; assay type: functional, cell-based
Melanocyte-stimulating hormone receptor, sequence (Q01727 whole entry): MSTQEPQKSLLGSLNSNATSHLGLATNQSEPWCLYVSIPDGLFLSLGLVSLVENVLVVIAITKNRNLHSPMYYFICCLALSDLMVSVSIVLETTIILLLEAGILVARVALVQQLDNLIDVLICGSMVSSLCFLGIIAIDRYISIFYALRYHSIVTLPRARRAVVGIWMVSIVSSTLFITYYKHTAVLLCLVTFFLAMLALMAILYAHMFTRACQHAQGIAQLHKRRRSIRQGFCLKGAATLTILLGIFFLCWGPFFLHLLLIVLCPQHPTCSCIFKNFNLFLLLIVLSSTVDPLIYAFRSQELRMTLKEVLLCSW

[5] = molecular target: T1, Melanocortin receptor 4 (Mus musculus, UniProt P56450); test: Antagonist activity at mouse melanocortin receptor 4 expressed in HEK293 cells assessed as inhibition of NDP-MSH-induced cAMP accumulation incubated for 2 hrs by cAMP Alpha-screen assay based Schild analysis; assay type: functional, cell-based; details: for Kb: read-out: pA2 (converted)
T1 sequence (P56450 whole entry): as the sequence (P56450 whole entry) above

[6] = molecular target: Melanocortin receptor 3 (Mus musculus, UniProt P33033); test: Agonist activity at mouse melanocortin receptor 3 expressed in HEK293 cells assessed as stimulation of cAMP accumulation incubated for 2 hrs by cAMP Alpha-screen assay; assay type: functional, cell-based
Melanocortin receptor 3, sequence (P33033 whole entry): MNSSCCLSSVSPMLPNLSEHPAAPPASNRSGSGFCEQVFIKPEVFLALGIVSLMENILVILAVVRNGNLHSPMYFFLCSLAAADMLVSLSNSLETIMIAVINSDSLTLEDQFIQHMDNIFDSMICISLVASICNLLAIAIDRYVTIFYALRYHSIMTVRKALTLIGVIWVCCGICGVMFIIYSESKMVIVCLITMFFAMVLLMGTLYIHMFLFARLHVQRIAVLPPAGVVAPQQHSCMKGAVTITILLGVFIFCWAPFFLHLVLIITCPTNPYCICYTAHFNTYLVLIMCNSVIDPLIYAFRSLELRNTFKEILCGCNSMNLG

[7] = molecular target: Melanocyte-stimulating hormone receptor (Mus musculus) (UniProt Q01727); test: Partial agonist activity at mouse melanocortin receptor 1 expressed in HEK293 cells assessed as stimulation of cAMP accumulation incubated for 2 hrs by cAMP Alpha-screen assay relative to NDP-MSH; assay type: functional, cell-based; details: filed as partial agonist
Melanocyte-stimulating hormone receptor (Mus musculus), sequence (Q01727 whole entry, looked up): as the sequence (Q01727 whole entry) above

[8] = molecular target: T1, Melanocortin receptor 4; test: Agonist activity at mouse melanocortin receptor 4 expressed in HEK293 cells assessed as stimulation of cAMP accumulation incubated for 2 hrs by cAMP Alpha-screen assay; assay type: functional, cell-based
[9] = species on record: Mus musculus; test: Selectivity index, ratio of EC50 for mouse melanocortin receptor 4 expressed in HEK293 cells to EC50 for mouse melanocortin receptor 3 expressed in HEK293 cells assessed as stimulation of cAMP accumulation incubated for 2 hrs by cAMP Alpha-screen assay; assay type: cell-based

SMILES: CC(=O)N[C@@H](Cc1c[nH]cn1)C(=O)N[C@@H](CCCNC(=N)N)C(=O)N[C@H](Cc1ccc(-c2ccccc2)cc1)C(=O)N1Cc2ccccc2C[C@@H]1C(N)=O
EC50 [1]: 26 nM
Selectivity ratio [2]: 8
Activity [3]: 35%
EC50 [4]: 0.9 nM
Ki [5]: 320 nM
Kb [5]: 316 nM
EC50 [6]: 39 nM

SMILES: CC(=O)N[C@@H](CCCNC(=N)N)C(=O)N[C@@H](CCC(N)=O)C(=O)N[C@H](Cc1ccc(-c2ccccc2)cc1)C(=O)N1Cc2ccccc2C[C@H]1C(N)=O
EC50 [1]: 16.4 nM
Selectivity ratio [2]: 30
Activity ([3]; filed as agonist): 40%
EC50 [4]: 60 nM
Ki [5]: 2000 nM
Kb [5]: 2000 nM
EC50 [6]: 66 nM

SMILES: CC(=O)N[C@H](C(=O)N[C@@H](CCC(N)=O)C(=O)N[C@H](Cc1ccc(-c2ccccc2)cc1)C(=O)N1Cc2ccccc2C[C@@H]1C(N)=O)C(C)C
EC50 [1]: 36 nM
Selectivity ratio [2]: > 140
Activity ([3]; filed as agonist): 40%
EC50 [4]: 150 nM
Ki [5]: > 10000 nM
Kb [5]: > 10000 nM
EC50 [6]: 70 nM
Activity [7]: 75%

SMILES: CC(=O)N[C@@H](Cc1c[nH]cn1)C(=O)N[C@@H](CCC(N)=O)C(=O)N[C@H](Cc1ccc(-c2ccccc2)cc1)C(=O)N1Cc2ccccc2C[C@@H]1C(N)=O
EC50 [1]: 39 nM
Selectivity ratio [2]: 36
Activity ([3]; filed as agonist): 50%
EC50 [4]: 123 nM
Ki [5]: 3980 nM
Kb [5]: 3980 nM
EC50 [6]: 110 nM

SMILES: CC(=O)N[C@@H](Cc1c[nH]cn1)C(=O)N[C@@H](CCCNC(=N)N)C(=O)N[C@H](Cc1ccc(-c2ccccc2)cc1)C(=O)N1Cc2ccccc2C[C@H]1C(N)=O
EC50 [1]: 9 nM
Selectivity ratio [2]: 14
Activity [3]: 35%
EC50 [4]: 0.5 nM
Ki [5]: 320 nM
Kb [5]: 316 nM
EC50 [6]: 22 nM

SMILES: CC(=O)N[C@H](C(=O)N[C@@H](CCC(N)=O)C(=O)N[C@H](Cc1ccc(-c2ccccc2)cc1)C(=O)N1Cc2ccccc2C[C@H]1C(N)=O)C(C)C
EC50 [1]: 31 nM
Selectivity ratio [2]: > 90
Activity [3]: 20%
EC50 [4]: 80 nM
Ki [5]: > 10000 nM
Kb [5]: > 10000 nM
EC50 [6]: 110 nM
Activity [7]: 85%

The remaining compounds from weak to strong by EC50 [1], led by results:

EC50 [1]: 31 nM
Activity [3]: 20%
EC50 [4]: 160 nM
Ki [5]: 10000 nM
Kb [5]: 10000 nM
EC50 [6]: 150 nM
SMILES: CC(=O)N[C@@H](Cc1c[nH]cn1)C(=O)N[C@@H](CCC(N)=O)C(=O)N[C@H](Cc1ccc(-c2ccccc2)cc1)C(=O)N1Cc2ccccc2C[C@H]1C(N)=O
Selectivity ratio [2]: 65

EC50 [1]: 25 nM
Activity [3]: 35%
EC50 [4]: 1.7 nM
Ki [5]: 250 nM
Kb [5]: 251 nM
EC50 [6]: 36 nM
SMILES: CC(=O)N[C@H](C(=O)N[C@@H](CCCNC(=N)N)C(=O)N[C@H](Cc1ccc(-c2ccccc2)cc1)C(=O)N1Cc2ccccc2C[C@@H]1C(N)=O)C(C)C
Selectivity ratio [2]: 7

EC50 [1]: 18 nM
Activity [3]: 10%
EC50 [4]: 1.1 nM
Ki [5]: 400 nM
Kb [5]: 398 nM
EC50 [6]: 40 nM
SMILES: CC(=O)N[C@H](C(=O)N[C@@H](CCCNC(=N)N)C(=O)N[C@H](Cc1ccc(-c2ccccc2)cc1)C(=O)N1Cc2ccccc2C[C@H]1C(N)=O)C(C)C
Selectivity ratio [2]: 10

EC50 [1]: 5.7 nM
Activity ([3]; filed as agonist): 40%
EC50 [4]: 0.6 nM
Ki [5]: 160 nM
Kb [5]: 158 nM
EC50 [6]: 14 nM
SMILES: CC(=O)N[C@@H](CCCNC(=N)N)C(=O)N[C@@H](CCCNC(=N)N)C(=O)N[C@H](Cc1ccc(-c2ccccc2)cc1)C(=O)N1Cc2ccccc2C[C@@H]1C(N)=O
Selectivity ratio [2]: 11

EC50 [1]: 5.6 nM
EC50 [4]: 11 nM
EC50 [6]: 14 nM
EC50 [8]: 400 nM
SMILES: CC(=O)N[C@@H](CCCNC(=N)N)C(=O)N[C@@H](CCC(N)=O)C(=O)N[C@H](Cc1ccc(-c2ccccc2)cc1)C(=O)N1Cc2ccccc2C[C@@H]1C(N)=O
Ratio EC50 [9]: 28

EC50 [1]: 3.5 nM
Activity [3]: 35%
EC50 [4]: 0.23 nM
Ki [5]: 125 nM
Kb [5]: 126 nM
EC50 [6]: 11 nM
SMILES: CC(=O)N[C@@H](CCCNC(=N)N)C(=O)N[C@@H](CCCNC(=N)N)C(=O)N[C@H](Cc1ccc(-c2ccccc2)cc1)C(=O)N1Cc2ccccc2C[C@H]1C(N)=O
Selectivity ratio [2]: 11
